Test results as given in ChEMBL document CHEMBL3608308, “Design, synthesis and antiproliferative activity of novel heterobivalent hybrids based on imidazo[2,1-b][1,3,4]thiadiazole and imidazo[2,1-b][1,3]thiazole scaffolds” (Eur J Med Chem, 2015).
Activity calls are given as the source filed them. The calls are words filed in the database; no cut-off is given here.

Columns and labels:
[1] = test system: CCRF-CEM; assay: Antiproliferative activity against human CEM cells assessed as inhibition of cell proliferation incubated for 3 days by Coulter counter based assay; type: functional; details: 72 h
[2] = test system: HeLa; assay: Antiproliferative activity against human HeLa cells assessed as inhibition of cell proliferation incubated for 4 days by Coulter counter based assay; type: functional; details: 96 h
[3] = test system: L1210; assay: Antiproliferative activity against mouse L1210 cells assessed as inhibition of cell proliferation incubated for 2 days by Coulter counter based assay; type: functional; details: L1210, 48 h
[4] = test system: FM3A; assay: Antiproliferative activity against mouse FM3A cells assessed as inhibition of cell proliferation incubated for 2 days by Coulter counter based assay; type: functional; details: 48 h
[5] = test system: HL-60; assay: Induction of apoptosis in human HL60 cells assessed as cleavage of pro-caspase-9 at 3 uM incubated for 8 hrs by immunoblot method; type: functional, cell-based
[6] = test system: HL-60; assay: Induction of apoptosis in human HL60 cells assessed as increase in cytochrome c release into cytosol at 3 uM incubated for 8 hrs by immunoblot method; type: functional, cell-based
[7] = test system: HL-60; assay: Induction of apoptosis in human HL60 cells assessed as hypodiploid cells level at 1 uM incubated for 24 hrs by propidium iodide staining based flow cytometry relative to untreated control; type: functional
[8] = test system: HL-60; assay: Cytotoxicity against human HL60 cells assessed as reduction in cell viability incubated for 72 hrs by MTT assay; type: functional, cell-based
[9] = test system: U-937; assay: Induction of apoptosis in human U937 cells over-expressing human Bcl-2 assessed as increase in cytochrome c release into cytosol at 3 uM incubated for 8 hrs by immunoblot method; type: functional, cell-based
[10] = test system: HL-60; assay: Induction of apoptosis in human HL60 cells assessed as cleavage of pro-caspase-3/7 activity at 3 uM incubated for 8 hrs DEVD-pNA chromogenic substrate proteolytic cleavage assay; type: functional
[11] = test system: HL-60; assay: Induction of apoptosis in human HL60 cells assessed as induction of morphological changes by inverted phase contrast microscopy; type: functional, cell-based
[12] = test system: U-937; assay: Cytotoxicity against human U937 cells over-expressing human Bcl-2 assessed as reduction in cell viability incubated for 72 hrs by MTT assay; type: functional, cell-based
[13] = test system: U-937; assay: Induction of apoptosis in human U937 cells assessed as cleavage of pro-caspase-9 at 3 uM incubated for 8 hrs by immunoblot method; type: functional, cell-based
[14] = test system: U-937; assay: Induction of apoptosis in human U937 cells assessed as induction of increase in condensed and fragmented chromatin at 3 uM incubated for 8 hrs by Hoechst 33258 staining based fluorescent microscopy; type: functional, cell-based
[15] = test system: U-937; assay: Induction of apoptosis in human U937 cells assessed as induction of cell shrinkage at 3 uM incubated for 8 hrs by Hoechst 33258 staining based fluorescent microscopy; type: functional
[16] = test system: U-937; assay: Induction of apoptosis in human U937 cells assessed as induction of increase in apoptotic bodies at 3 uM incubated for 8 hrs by Hoechst 33258 staining based fluorescent microscopy; type: functional, cell-based
[17] = test system: HL-60; assay: Induction of apoptosis in human HL60 cells assessed as cleavage of pro-caspase-8 at 3 uM incubated for 8 hrs by immunoblot method; type: functional, cell-based
[18] = test system: U-937; assay: Induction of apoptosis in human U937 cells over-expressing human Bcl-2 assessed as induction of cell shrinkage at 3 uM incubated for 8 hrs by Hoechst 33258 staining based fluorescent microscopy; type: functional
[19] = test system: U-937; assay: Induction of apoptosis in human U937 cells assessed as induction of morphological changes by inverted phase contrast microscopy; type: functional, cell-based
[20] = test system: HL-60; assay: Induction of apoptosis in human HL60 cells assessed as cleavage of pro-caspase-3 at 3 uM incubated for 8 hrs by immunoblot method; type: functional, cell-based
[21] = test system: U-937; assay: Cytotoxicity against human U937 cells assessed as reduction in cell viability incubated for 72 hrs by MTT assay; type: functional, cell-based
[22] = test system: SK-MEL-1; assay: Cytotoxicity against human SK-MEL-1 cells assessed as reduction in cell viability incubated for 72 hrs by MTT assay; type: functional, cell-based
[23] = test system: HL-60; assay: Induction of apoptosis in human HL60 cells assessed as hypodiploid cells level at 1 and 10 uM incubated for 24 hrs by propidium iodide staining based flow cytometry; type: functional, cell-based
[24] = test system: U-937; assay: Induction of apoptosis in human U937 cells over-expressing human Bcl-2 assessed as induction of increase in apoptotic bodies at 3 uM incubated for 8 hrs by Hoechst 33258 staining based fluorescent microscopy; type: functional, cell-based
[25] = test system: HL-60; assay: Induction of apoptosis in human HL60 cells assessed as hypodiploid cells level at 1 uM incubated for 24 hrs by propidium iodide staining based flow cytometry (reference value: 2.6 +/- 0.6%); type: functional
[26] = test system: HL-60; assay: Induction of DNA laddering in human HL60 cells at 3 to 10 uM incubated for 24 hrs by ethidium bromide staining based gel electrophoresis method; type: functional, cell-based
[27] = test system: U-937; assay: Induction of apoptosis in human U937 cells over-expressing human Bcl-2 assessed as induction of increase in condensed and fragmented chromatin at 3 uM incubated for 8 hrs by Hoechst 33258 staining based fluorescent microscopy; type: functional, cell-based
[28] = test system: U-937; assay: Induction of apoptosis in human U937 cells assessed as cleavage of pro-caspase-3 at 3 uM incubated for 8 hrs by immunoblot method; type: functional, cell-based
[29] = test system: U-937; assay: Induction of apoptosis in human U937 cells assessed as cleavage of pro-caspase-8 at 3 uM incubated for 8 hrs by immunoblot method; type: functional, cell-based
[30] = test system: U-937; assay: Induction of apoptosis in human U937 cells over-expressing human Bcl-2 assessed as induction of morphological changes by inverted phase contrast microscopy; type: functional, cell-based
[31] = test system: U-937; assay: Induction of apoptosis in human U937 cells assessed as increase in cytochrome c release into cytosol at 3 uM incubated for 8 hrs by immunoblot method; type: functional, cell-based

`C=C(Br)C(=O)Nc1cccc(-c2cn3c(-c4ccccc4)csc3n2)c1` was tested, and the IC50 [1] was 2.8 µM, the IC50 [2] was 3.4 µM and the IC50 [3] was 1.3 µM. For the same molecule, the IC50 [4] was 1.3 µM.
Molecule `Nc1cccc(-c2cn3nc(-c4ccc(F)cc4)sc3n2)c1` has an IC50 [1] of at least 250 µM, an IC50 [2] of at least 250 µM and an IC50 [3] of at least 250 µM. For the same molecule, the IC50 [4] was 33 µM.
`Nc1cccc(-c2cn3nc(-c4ccc(Cl)cc4)sc3n2)c1` gave an IC50 [1] of over 250 µM, an IC50 [2] of 160 µM and an IC50 [3] of at least 250 µM. The IC50 [4] was 160 µM.
With `C=C(Br)C(=O)Nc1cccc(-c2cn3nc(-c4cccs4)sc3n2)c1` the Activity [5] was “Active”, the Activity [6] was “Active” and the “fold change (FC)” value [7] was 5.6. The Activity [8] was “Dose-dependent effect”, the IC50 ([8]; HL-60, 72 h) was 0.38 µM and the Activity [9] was “Active”. For the same molecule, the “fold change (FC)” value [10] was 3, the IC50 [1] was 0.41 µM and the Activity [11] was “Active”. The IC50 [2] was 0.67 µM, the Activity [12] was “Dose-dependent effect” and the IC50 ([12]; U-937, 72 h) was 0.27 µM. For the same molecule, the Activity [13] was “Active”, the Activity [14] was “Active” and the Activity [15] was “Active”. For the same molecule, the Activity [16] was “Active”, the Activity [17] was “Active” and the Activity [18] was “Active”. The Activity [19] was “Active”, the Activity [20] was “Active” and the Activity [21] was “Dose-dependent effect”. For the same molecule, the IC50 ([21]; U-937, 72 h) was 0.57 µM, the Activity [22] was “Dose-dependent effect” and the IC50 ([22]; SK-MEL-1, 72 h) was 0.69 µM. For the same molecule, the Activity [23] was “Dose-dependent effect”, the IC50 [3] was 0.17 µM and the Activity [24] was “Active”. The Activity [25] was 14.5%, the Activity [26] was “inactive” and the IC50 [4] was 0.37 µM. For the same molecule, the Activity [27] was “Active”, the Activity [28] was “Active” and the Activity [29] was “Active”. The Activity [30] was “Active” and the Activity [31] was “Active”.
With `C=C(Br)C(=O)Nc1cccc(-c2cn3nc(Cc4ccccc4)sc3n2)c1` the IC50 [1] was 4.2 µM, the IC50 [2] was 4.5 µM and the IC50 [3] was 3 µM. It also gave an IC50 [4] of 3 µM.
Work on `COc1ccc(-c2nn3cc(-c4cccc(N)c4)nc3s2)cc1` yielded an IC50 [1] of at least 250 µM, an IC50 [2] of at least 250 µM and an IC50 [3] of at least 250 µM. It also gave an IC50 [4] of 74 µM.
Molecule `Cc1ccc(-c2nn3cc(-c4cccc(N)c4)nc3s2)cc1` has an IC50 [1] of 5.9 µM, an IC50 [2] of 8.9 µM and an IC50 [3] of 4.8 µM. The IC50 [4] was 5.8 µM.
In the case of `CCc1ccc(-c2nn3cc(-c4cccc(N)c4)nc3s2)cc1`, the IC50 [1] is reported as 22 µM, the IC50 [2] is reported as 8.1 µM and the IC50 [3] is reported as 6 µM. The IC50 [4] was 8.2 µM.
For `C=C(Br)C(=O)Nc1cccc(-c2cn3nc(-c4ccc(CC)cc4)sc3n2)c1`, the IC50 [1] was 3.4 µM, the IC50 [2] was 3.2 µM and the IC50 [3] was 2.2 µM. For the same molecule, the IC50 [4] was 3.3 µM.
For `Nc1cccc(-c2cn3nc(-c4ccccc4)sc3n2)c1`, the IC50 [1] was 33 µM, the IC50 [2] was 26 µM and the IC50 [3] was 32 µM. It also gave an IC50 [4] of 14 µM.
For `C=C(Br)C(=O)Nc1cccc(-c2cn3nc(-c4ccc(OCC)cc4)sc3n2)c1`, the IC50 [1] was 1.4 µM, the IC50 [2] was 1.1 µM and the IC50 [3] was 0.79 µM. The IC50 [4] was 1.1 µM.
With `COc1ccc(Cc2nn3cc(-c4cccc(N)c4)nc3s2)cc1` the IC50 [1] was at least 250 µM, the IC50 [2] was 191 µM and the IC50 [3] was 227 µM. It also gave an IC50 [4] of 100 µM.
For `Nc1cccc(-c2cn3nc(-c4cccs4)sc3n2)c1`, the IC50 [1] was over 250 µM, the IC50 [2] was over 250 µM and the IC50 [3] was over 250 µM. It also gave an IC50 [4] of over 250 µM.
`Nc1cccc(-c2cn3nc(Cc4ccccc4)sc3n2)c1` showed an IC50 [1] of 37 µM, an IC50 [2] of 24 µM and an IC50 [3] of 7.4 µM. The IC50 [4] was 4.7 µM.
With `COc1cccc(Cc2nn3cc(-c4cccc(N)c4)nc3s2)c1` the IC50 [1] was 40 µM, the IC50 [2] was 24 µM and the IC50 [3] was 21 µM. For the same molecule, the IC50 [4] was 10 µM.
With `C=C(Br)C(=O)Nc1cccc(-c2cn3c(-c4ccc(Cl)cc4)csc3n2)c1` the IC50 [1] was 2.2 µM, the IC50 [2] was 3 µM and the IC50 [3] was 1.9 µM. The IC50 [4] was 1.1 µM.
